Experimental data as given in patent US20080020947A1, “Novel microorganisms having oil biodegradability and method for bioremediation of oil-contaminated soil” (priority 2006, published 2008).

Tests used:
[1] = test system: Rodococcus baikoneurensis EN3; assay: Biosurfactant's ability to increase diesel oil degradation by Rodococcus baikoneurensis EN3; type: cell-based; settings: initial diesel 20,000 ppm; acid 10 ppm, 50 ppm and 100 ppm; about 30% without acid
Protocol: (§1) For this reason, 2-hexyl-3-hydroxy-decanoic acid having 16 carbon atoms according to the present invention was added liquid media each containing 10,000 ppm or 20,000 ppm of diesel oil and mineral medium (NH4NO3, 1 g/L; MgSO4, 0.2 g/L; CaCl2, 0.02 g/L; FeCl2, 0.05 g/L; KH2PO4, 1 g/L; K2HPO4, 1 g/L; pH 7.0). Then, the media were inoculated with each of Rodococcus baikoneurensis EN3 of Example 2 and Gordonia nitida NP1 of Example 6 and cultured at 30° C. for 7 days. Then, an increase in the oil biodegradability of each of the microbial strains was measured using gas chromatography.
FIG. 9 is a graphic diagram showing an increase in the diesel oil degradability of Rodococcus baikoneurensis EN3, caused by the synthetic biosurfactant 2-hexyl-3-hydroxy-decanoic acid, at an initial diesel concentration of 20,000 ppm. In FIG. 9, the initial inoculation level of Rodococcus baikoneurensis EN3 is 6×10^4 cfu/ml, and the initial concentration of diesel oil is 20,000 ppm. Also, the initial concentrations of 2-hexyl-3-hydroxy-decanoic acid are 10 ppm (∘), 50 ppm (□) and 100 ppm (Δ), the symbol “•” indicates a microorganism-uninoculated group (control group 1), and the symbol “▪” indicates a group (control group 2), which was inoculated with microorganisms, but not injected with 2-hexyl-3-hydroxy-decanoic acid.

[2] = Critical micelle concentration; type: physicochemical
[3] = test system: mixed cultured strain of Examples 2, 6 and 7; assay: Microbial growth promotion of biosurfactant 2-hexyl-3-hydroxy-decanoic acid (cfu per ml after culture); type: cell-based; settings: 0.1 in composition of Examples 16 and 17
Protocol: These examples relate to an experiment of confirming whether the growth of microorganisms having oil biodegradability is promoted due to the addition of biosurfactant 2-hexyl-3-hydroxy-decanoic acid.
In this experiment, the mixed cultured strain of Examples 2, 6 and 7 was added to tryptic soy broth (TSB) and then cultured for 13 hours. In the culture process, the microbial strain was added into a 100-ml flask at an initial concentration of 4.9×10^6 cfu/ml to a work volume of 10 ml, and the inoculation level of the strain was 1% (w/v), i.e., 0.1 ml.
In Comparative Examples 7-10 and Examples 16 and 17, the microbial strain was cultured in media (10 g/L) at 30° C. for 24 hours, and then measured for colony-forming units (cfu) per ml to determine the degree of proliferation of microorganisms.
Specifically, a composition used in Comparative Examples 7-10 consisted of glucose, yeast extract, malt extract, Na2HPO4, KH2PO4, K2HPO4, MgSO4, CaCl2, FeSO4, CoCl2, ZnSO4, CuSO4 and MnSO4, and a composition used in Examples 16 and 17 consisted of glucose, yeast extract, malt extract, Na2HPO4, KH2PO4, K2HPO4, MgSO4, CaCl2, FeSO4, CoCl2, ZnSO4, CuSO4 and MnSO4, to which the biosurfactant 2-hexyl-3-hydroxy-decanoic acid was added.

Gordonia nitida NP1 = assay: Biosurfactant's ability to increase diesel oil degradation by Gordonia nitida NP1; type: cell-based; settings: acid 9 ppm
Protocol: as §1
FIG. 10 is a graphic diagram showing an increase in the diesel oil degradability of Gordonia nitida NP1, caused by the synthetic biosurfactant 2-hexyl-3-hydroxy-decanoic acid, at an initial diesel concentration of 15,000 ppm. In FIG. 10, the initial inoculation level of […] is 6×10^4 cfu/ml, and the initial concentration of diesel oil is 15,000 ppm. Also, the initial concentrations of 2-hexyl-3-hydroxy-decanoic acid were 9 ppm (▾), 90 ppm (∇) and 900 ppm (▪), the symbol “[…]” indicates a microorganism-uninoculated group (control group 1), and the symbol “∘” indicates a group (control group 2), which was inoculated with microorganisms, but not injected with 2-hexyl-3-hydroxy-decanoic acid. […]

- critical micelle concentration (cmc) [2]: 37.1 ppm
SMILES: CCCCCCCC(O)C(CCCCCC)C(=O)O (centres unmarked) [2-hexyl-3-hydroxy-decanoic acid]
- oil biodegradation rate of the microbial strain with acid added [1]: about 70%
- effect of addition on growth of the microorganisms [3]: promotion of growth
- change in diesel oil degradation rate of the microbial strain with acid added (Gordonia nitida NP1; 90 ppm and 900 ppm, initial diesel 15,000 ppm and 20,000 ppm (FIGS. 10, 11)): great increase
- change in oil degradation rate of the microbial strain with acid added (Gordonia nitida NP1; initial diesel 20,000 ppm): did not show an increase
